Experimental data from ChEMBL document CHEMBL2010711, “Synthesis and comparative evaluation of 4-oxa- and 4-aza-podophyllotoxins as antiproliferative microtubule destabilizing agents” (Bioorg Med Chem Lett, 2012).
Activity calls are given as the source filed them.

What was measured:
CCRF-CEM = experiment: Cytotoxicity against human CCRF-CEM cells after 48 hrs by trypan blue dye exclusion assay; type: functional
HL-60(TB) = experiment: Cytotoxicity against human HL-60(TB) cells after 48 hrs by trypan blue dye exclusion assay; type: functional; conditions: HL-60, 48 h
MOLT-4 = experiment: Cytotoxicity against human MOLT4 cells after 48 hrs by trypan blue dye exclusion assay; type: functional; conditions: MOLT-4, 48 h
RPMI-8226 = experiment: Cytotoxicity against human RPMI8226 cells after 48 hrs by trypan blue dye exclusion assay; type: functional; conditions: RPMI-8226, 48 h
SR = experiment: Cytotoxicity against human SR cells after 48 hrs by trypan blue dye exclusion assay; type: functional
A549 = experiment: Cytotoxicity against human A549 cells after 48 hrs by trypan blue dye exclusion assay; type: functional; conditions: A549, 48 h
EKVX = experiment: Cytotoxicity against human EKVX cells after 48 hrs by trypan blue dye exclusion assay; type: functional
HOP-92 = experiment: Cytotoxicity against human HOP92 cells after 48 hrs by trypan blue dye exclusion assay; type: functional; conditions: HOP-92, 48 h
NCI-H226 = experiment: Cytotoxicity against human NCI-H226 cells after 48 hrs by trypan blue dye exclusion assay; type: functional; conditions: NCI-H226, 48 h
NCI-H23 = experiment: Cytotoxicity against human NCI-H23 cells after 48 hrs by trypan blue dye exclusion assay; type: functional; conditions: NCI-H23, 48 h
NCI-H460 = experiment: Cytotoxicity against human NCI-H460 cells after 48 hrs by trypan blue dye exclusion assay; type: functional; conditions: NCI-H460, 48 h
NCI-H522 = experiment: Cytotoxicity against human NCI-H522 cells after 48 hrs by trypan blue dye exclusion assay; type: functional; conditions: NCI-H522, 48 h
COLO 205 = experiment: Cytotoxicity against human COLO205 cells after 48 hrs by trypan blue dye exclusion assay; type: functional; conditions: COLO 205, 48 h
HCC 2998 = experiment: Cytotoxicity against human HCC2998 cells after 48 hrs by trypan blue dye exclusion assay; type: functional; conditions: HCC 2998, 48 h
HCT-116 = experiment: Cytotoxicity against human HCT116 cells after 48 hrs by trypan blue dye exclusion assay; type: functional; conditions: HCT-116, 48 h
HCT-15 = experiment: Cytotoxicity against human HCT15 cells after 48 hrs by trypan blue dye exclusion assay; type: functional; conditions: HCT-15, 48 h
HT-29 = experiment: Cytotoxicity against human HT-29 cells after 48 hrs by trypan blue dye exclusion assay; type: functional; conditions: HT-29, 48 h
KM12 = experiment: Cytotoxicity against human KM12 cells after 48 hrs by trypan blue dye exclusion assay; type: functional; conditions: KM12, 48 h
SW-620 = experiment: Cytotoxicity against human SW620 cells after 48 hrs by trypan blue dye exclusion assay; type: functional; conditions: SW-620, 48 h
SF-268 = experiment: Cytotoxicity against human SF268 cells after 48 hrs by trypan blue dye exclusion assay; type: functional; conditions: SF-268, 48 h
SF-295 = experiment: Cytotoxicity against human SF295 cells after 48 hrs by trypan blue dye exclusion assay; type: functional; conditions: SF-295, 48 h
SF-539 = experiment: Cytotoxicity against human SF539 cells after 48 hrs by trypan blue dye exclusion assay; type: functional; conditions: SF-539, 48 h
SNB-19 = experiment: Cytotoxicity against human SNB19 cells after 48 hrs by trypan blue dye exclusion assay; type: functional; conditions: SNB-19, 48 h
SNB-75 = experiment: Cytotoxicity against human SNB75 cells after 48 hrs by trypan blue dye exclusion assay; type: functional; conditions: SNB-75, 48 h
U-251 = experiment: Cytotoxicity against human U251 cells after 48 hrs by trypan blue dye exclusion assay; type: functional; conditions: U-251, 48 h
LOX IMVI = experiment: Cytotoxicity against human LOXIMVI cells after 48 hrs by trypan blue dye exclusion assay; type: functional
Malme-3M = experiment: Cytotoxicity against human MALME-3M cells after 48 hrs by trypan blue dye exclusion assay; type: functional
M14 = experiment: Cytotoxicity against human M14 cells after 48 hrs by trypan blue dye exclusion assay; type: functional; conditions: M14, 48 h
MDA-MB-435 = experiment: Cytotoxicity against human MDA-MB-435 cells after 48 hrs by trypan blue dye exclusion assay; type: functional; conditions: MDA-MB-435, 48 h
SK-MEL-2 = experiment: Cytotoxicity against human SK-MEL-2 cells after 48 hrs by trypan blue dye exclusion assay; type: functional; conditions: SK-MEL-2, 48 h
SK-MEL-28 = experiment: Cytotoxicity against human SK-MEL-28 cells after 48 hrs by trypan blue dye exclusion assay; type: functional; conditions: SK-MEL-28, 48 h
UACC-62 = experiment: Cytotoxicity against human UACC62 cells after 48 hrs by trypan blue dye exclusion assay; type: functional; conditions: UACC-62, 48 h
IGROV-1 = experiment: Cytotoxicity against human IGROV1 cells after 48 hrs by trypan blue dye exclusion assay; type: functional; conditions: IGROV-1, 48 h
OVCAR-3 = experiment: Cytotoxicity against human OVCAR3 cells after 48 hrs by trypan blue dye exclusion assay; type: functional; conditions: OVCAR-3, 48 h
OVCAR-4 = experiment: Cytotoxicity against human OVCAR4 cells after 48 hrs by trypan blue dye exclusion assay; type: functional; conditions: OVCAR-4, 48 h
OVCAR-5 = experiment: Cytotoxicity against human OVCAR5 cells after 48 hrs by trypan blue dye exclusion assay; type: functional; conditions: OVCAR-5, 48 h
OVCAR-8 = experiment: Cytotoxicity against human OVCAR8 cells after 48 hrs by trypan blue dye exclusion assay; type: functional; conditions: OVCAR-8, 48 h
NCI/ADR-RES = experiment: Cytotoxicity against human NCI/ADR-RES cells after 48 hrs by trypan blue dye exclusion assay; type: functional
SK-OV-3 = experiment: Cytotoxicity against human SKOV3 cells after 48 hrs by trypan blue dye exclusion assay; type: functional; conditions: SK-OV-3, 48 h
786-0 = experiment: Cytotoxicity against human 786-0 cells after 48 hrs by trypan blue dye exclusion assay; type: functional; conditions: 786-0, 48 h
A498 = experiment: Cytotoxicity against human A498 cells after 48 hrs by trypan blue dye exclusion assay; type: functional; conditions: A498, 48 h
ACHN = experiment: Cytotoxicity against human ACHN cells after 48 hrs by trypan blue dye exclusion assay; type: functional
RXF 393 = experiment: Cytotoxicity against human RXF393 cells after 48 hrs by trypan blue dye exclusion assay; type: functional; conditions: RXF 393, 48 h
SN12C = experiment: Cytotoxicity against human SN12C cells after 48 hrs by trypan blue dye exclusion assay; type: functional
TK-10 = experiment: Cytotoxicity against human TK10 cells after 48 hrs by trypan blue dye exclusion assay; type: functional; conditions: TK-10, 48 h
UO-31 = experiment: Cytotoxicity against human UO31 cells after 48 hrs by trypan blue dye exclusion assay; type: functional; conditions: UO-31, 48 h
PC-3 = experiment: Cytotoxicity against human PC3 cells after 48 hrs by trypan blue dye exclusion assay; type: functional; conditions: PC-3, 48 h
DU-145 = experiment: Cytotoxicity against human DU145 cells after 48 hrs by trypan blue dye exclusion assay; type: functional; conditions: DU-145, 48 h
MCF7 = experiment: Cytotoxicity against human MCF7 cells after 48 hrs by trypan blue dye exclusion assay; type: functional; conditions: MCF7, 48 h
MDA-MB-231 = experiment: Cytotoxicity against human MDA-MB-231 cells after 48 hrs by trypan blue dye exclusion assay; type: functional; conditions: MDA-MB-231, 48 h
[1] = Cytotoxicity against human Hs 578T cells after 48 hrs by trypan blue dye exclusion assay; type: functional
BT-549 = experiment: Cytotoxicity against human BT549 cells after 48 hrs by trypan blue dye exclusion assay; type: functional; conditions: BT-549, 48 h
T47D = experiment: Cytotoxicity against human T47D cells after 48 hrs by trypan blue dye exclusion assay; type: functional
MDA-MB-468 = experiment: Cytotoxicity against human MDA-MB-468 cells after 48 hrs by trypan blue dye exclusion assay; type: functional; conditions: MDA-MB-468, 48 h
Paracentrotus lividus [2] = experiment: Antimitotic activity against Paracentrotus lividus embryo assessed as concentration required to cause 100% cleavage alteration after 2.5 to 6 hrs; type: functional
Paracentrotus lividus [3] = experiment: Antimitotic activity against Paracentrotus lividus embryo assessed as concentration required to cause 100% cleavage arrest after 2.5 to 6 hrs; type: functional
Paracentrotus lividus [4] = experiment: Microtubule destabilizing activity in Paracentrotus lividus embryo assessed as concentration required to cause 100% embryo spinning after 15 mins to 20 hrs; type: functional
Paracentrotus lividus [5] = experiment: Antimitotic activity against Paracentrotus lividus embryo assessed as cleavage alteration at 2 fold less effective threshold concentration after 2.5 to 6 hrs; type: functional, organism-based
Paracentrotus lividus [6] = experiment: Antimitotic activity against Paracentrotus lividus embryo assessed as cleavage arrest at 2 fold less effective threshold concentration after 2.5 to 6 hrs; type: functional, organism-based
Paracentrotus lividus [7] = experiment: Microtubule destabilizing activity in Paracentrotus lividus embryo assessed as embryo spinning at 2 fold less effective threshold concentration after 15 mins to 20 hrs; type: functional, organism-based

COc1ccc2c(c1)OC1=C(C(=O)OC1)C2c1cc(OC)c(OC)c(OC)c1 (stereo not given)
GI50 (CCRF-CEM): 0.315 µM
GI50 (HL-60(TB)): 0.249 µM
GI50 (MOLT-4): 0.515 µM
GI50 (RPMI-8226): 0.816 µM
GI50 (SR): 0.242 µM
GI50 (A549): 0.707 µM
GI50 (EKVX): 1.42 µM
GI50 (HOP-92): 0.496 µM
GI50 (NCI-H226): 47.5 µM
GI50 (NCI-H23): 0.441 µM
GI50 (NCI-H460): 1.27 µM
GI50 (NCI-H522): 0.378 µM
GI50 (COLO 205): 0.309 µM
GI50 (HCC 2998): 1.35 µM
GI50 (HCT-116): 0.496 µM
GI50 (HCT-15): 0.508 µM
GI50 (HT-29): 0.323 µM
GI50 (KM12): 0.464 µM
GI50 (SW-620): 0.352 µM
GI50 (SF-268): 0.731 µM
GI50 (SF-295): 0.288 µM
GI50 (SF-539): 0.376 µM
GI50 (SNB-19): 0.553 µM
GI50 (SNB-75): 0.172 µM
GI50 (U-251): 0.731 µM
GI50 (LOX IMVI): 0.505 µM
GI50 (Malme-3M): 0.468 µM
GI50 (M14): 0.505 µM
GI50 (MDA-MB-435): 0.12 µM
GI50 (SK-MEL-2): 0.439 µM
GI50 (SK-MEL-28): 0.667 µM
GI50 (UACC-62): 0.568 µM
GI50 (IGROV-1): 1.13 µM
GI50 (OVCAR-3): 0.332 µM
GI50 (OVCAR-4): 2.65 µM
GI50 (OVCAR-5): 4.68 µM
GI50 (OVCAR-8): 0.788 µM
GI50 (NCI/ADR-RES): 0.334 µM
GI50 (SK-OV-3): 0.368 µM
GI50 (786-0): 0.562 µM
GI50 (A498): 0.295 µM
GI50 (ACHN): 1.63 µM
GI50 (RXF 393): 0.231 µM
GI50 (SN12C): 0.993 µM
GI50 (TK-10): > 100 µM
GI50 (UO-31): 0.936 µM
GI50 (PC-3): 0.482 µM
GI50 (DU-145): 0.648 µM
GI50 (MCF7): 0.33 µM
GI50 (MDA-MB-231): 1.74 µM
GI50 [1]: 0.377 µM
GI50 (BT-549): 0.947 µM
GI50 (T47D): 0.489 µM
GI50 (MDA-MB-468): 0.232 µM
EC (Paracentrotus lividus [2]): 5 nM
EC (Paracentrotus lividus [3]): 50 nM
EC (Paracentrotus lividus [4]): 200 nM
Activity (Paracentrotus lividus [5]): inactive
Activity (Paracentrotus lividus [6]): inactive
Activity (Paracentrotus lividus [7]): inactive
